According to the supplement of paper PMC10307832:

How the values were obtained:
Assay in all cases: relative viability (nuclei count vs DMSO), 5 days (fraction); higher = more cells survive
HCC-366 = system: HCC-366
Outline: (§1)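 Medians of duplicate plates are given as relative viability. That measure is the nuclei count in treated wells divided by the count in vehicle wells. Counts were taken on 4× images of lung cancer cell lines in 1536-well plates, 5 days after pin-tool dosing the day after seeding with one drug alone or a fixed anchor-drug dose plus five library-drug doses (not always all listed) in √10 steps.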

NCI-H1395 = system: NCI-H1395
Outline: as §1

NCI-H2087 = system: NCI-H2087
Outline: as §1

SK-LU-1 = system: SK-LU-1
Outline: as §1

NCI-H522 = system: NCI-H522
Outline: as §1

NCI-H647 = system: NCI-H647
Outline: as §1

NCI-H2405 = system: NCI-H2405
Outline: as §1

NCI-H1993 = system: NCI-H1993
Outline: as §1

HARA = system: HARA
Outline: as §1

NCI-H2170 = system: NCI-H2170
Outline: as §1

BEN = system: BEN
Outline: as §1

SK-MES-1 = system: SK-MES-1
Outline: as §1

EKVX = system: EKVX
Outline: as §1

NCI-H661 = system: NCI-H661
Outline: as §1

LOU-NH91 = system: LOU-NH91
Outline: as §1

NCI-H1734 = system: NCI-H1734
Outline: as §1

HCC-827 = system: HCC-827
Outline: as §1

NCI-H1792 = system: NCI-H1792
Outline: as §1

NCI-H1437 = system: NCI-H1437
Outline: as §1

NCI-H2009 = system: NCI-H2009
Outline: as §1

NCI-H2342 = system: NCI-H2342
Outline: as §1

NCI-H1355 = system: NCI-H1355
Outline: as §1

Q: How did the relative viability (HCC-366; first compound 0.04 µM) turn out when `Cc1sc2c(c1C)C(c1ccc(Cl)cc1)=N[C@@H](CC(=O)OC(C)(C)C)c1nnc(C)n1-2` [JQ1] + Nc1ncn([C@H]2C[C@H](O)[C@@H](CO)O2)c(=O)n1 [Decitabine] (partner 2 µM) was run?
A: 0.309

Q: What about the relative viability (HCC-366; first compound 0.4 µM) of the same molecule?
A: 0.35

Q: What about the relative viability (HCC-366; first compound 1.265 µM) of the same molecule?
A: 0.36

Q: And the relative viability (HCC-366; first compound 4 µM)?
A: 0.293

Q: And the relative viability (NCI-H1395; first compound 0.04 µM)?
A: 0.683

Q: And the relative viability (NCI-H1395; first compound 0.1265 µM)?
A: 0.701

Q: What about the relative viability (NCI-H1395; first compound 0.4 µM) of the same molecule?
A: 0.71

Q: What about the relative viability (NCI-H1395; first compound 1.265 µM) of the same molecule?
A: 0.587

Q: And the relative viability (NCI-H1395; first compound 4 µM)?
A: 0.457

Q: What about the relative viability (NCI-H2087; first compound 0.04 µM) of the same molecule?
A: 0.316

Q: What about the relative viability (NCI-H2087; first compound 0.1265 µM) of the same molecule?
A: 0.251

Q: And the relative viability (NCI-H2087; first compound 0.4 µM)?
A: 0.262

Q: And the relative viability (NCI-H2087; first compound 1.265 µM)?
A: 0.151

Q: And the relative viability (NCI-H2087; first compound 4 µM)?
A: 0.18

Q: What about the relative viability (SK-LU-1; first compound 0.04 µM) of the same molecule?
A: 0.614

Q: What about the relative viability (SK-LU-1; first compound 0.1265 µM) of the same molecule?
A: 0.519

Q: What about the relative viability (SK-LU-1; first compound 0.4 µM) of the same molecule?
A: 0.416

Q: What about the relative viability (SK-LU-1; first compound 1.265 µM) of the same molecule?
A: 0.308

Q: And the relative viability (SK-LU-1; first compound 4 µM)?
A: 0.213

Q: And the relative viability (NCI-H522; first compound 0.04 µM)?
A: 0.656

Q: What about the relative viability (NCI-H522; first compound 0.1265 µM) of the same molecule?
A: 0.635

Q: And the relative viability (NCI-H522; first compound 0.4 µM)?
A: 0.661

Q: What about the relative viability (NCI-H522; first compound 1.265 µM) of the same molecule?
A: 0.473

Q: What about the relative viability (NCI-H522; first compound 4 µM) of the same molecule?
A: 0.501

Q: And the relative viability (NCI-H647; first compound 0.04 µM)?
A: 0.309

Q: And the relative viability (NCI-H647; first compound 0.1265 µM)?
A: 0.331

Q: And the relative viability (NCI-H647; first compound 0.4 µM)?
A: 0.344

Q: And the relative viability (NCI-H647; first compound 1.265 µM)?
A: 0.25

Q: What about the relative viability (NCI-H647; first compound 4 µM) of the same molecule?
A: 0.203

Q: What about the relative viability (NCI-H2405; first compound 0.04 µM) of the same molecule?
A: 0.81

Q: And the relative viability (NCI-H2405; first compound 0.4 µM)?
A: 0.75

Q: And the relative viability (NCI-H2405; first compound 1.265 µM)?
A: 0.577

Q: And the relative viability (NCI-H2405; first compound 4 µM)?
A: 0.471

Q: What about the relative viability (NCI-H1993; first compound 0.04 µM) of the same molecule?
A: 0.586

Q: And the relative viability (NCI-H1993; first compound 0.1265 µM)?
A: 0.636

Q: And the relative viability (NCI-H1993; first compound 0.4 µM)?
A: 0.553

Q: And the relative viability (NCI-H1993; first compound 1.265 µM)?
A: 0.538

Q: What about the relative viability (NCI-H1993; first compound 4 µM) of the same molecule?
A: 0.475

Q: What about the relative viability (HARA; first compound 0.04 µM) of the same molecule?
A: 0.617

Q: And the relative viability (HARA; first compound 0.1265 µM)?
A: 0.49

Q: And the relative viability (HARA; first compound 0.4 µM)?
A: 0.457

Q: What about the relative viability (HARA; first compound 1.265 µM) of the same molecule?
A: 0.385

Q: What about the relative viability (HARA; first compound 4 µM) of the same molecule?
A: 0.249

Q: And the relative viability (NCI-H2170; first compound 0.04 µM)?
A: 0.415

Q: And the relative viability (NCI-H2170; first compound 0.1265 µM)?
A: 0.441

Q: What about the relative viability (NCI-H2170; first compound 0.4 µM) of the same molecule?
A: 0.473

Q: And the relative viability (NCI-H2170; first compound 1.265 µM)?
A: 0.345

Q: And the relative viability (NCI-H2170; first compound 4 µM)?
A: 0.255

Q: And the relative viability (BEN; first compound 0.04 µM)?
A: 0.712

Q: And the relative viability (BEN; first compound 0.1265 µM)?
A: 0.578

Q: And the relative viability (BEN; first compound 0.4 µM)?
A: 0.63

Q: And the relative viability (BEN; first compound 1.265 µM)?
A: 0.511

Q: What about the relative viability (BEN; first compound 4 µM) of the same molecule?
A: 0.38

Q: And the relative viability (SK-MES-1; first compound 0.04 µM)?
A: 0.347

Q: And the relative viability (SK-MES-1; first compound 0.1265 µM)?
A: 0.385

Q: What about the relative viability (SK-MES-1; first compound 0.4 µM) of the same molecule?
A: 0.315

Q: And the relative viability (SK-MES-1; first compound 1.265 µM)?
A: 0.194

Q: What about the relative viability (SK-MES-1; first compound 4 µM) of the same molecule?
A: 0.216

Q: And the relative viability (EKVX; first compound 0.04 µM)?
A: 0.338

Q: And the relative viability (EKVX; first compound 0.1265 µM)?
A: 0.36

Q: What about the relative viability (EKVX; first compound 0.4 µM) of the same molecule?
A: 0.359

Q: What about the relative viability (EKVX; first compound 1.265 µM) of the same molecule?
A: 0.35

Q: What about the relative viability (EKVX; first compound 4 µM) of the same molecule?
A: 0.336

Q: What about the relative viability (NCI-H661; first compound 0.04 µM) of the same molecule?
A: 0.505

Q: What about the relative viability (NCI-H661; first compound 0.1265 µM) of the same molecule?
A: 0.47

Q: And the relative viability (NCI-H661; first compound 0.4 µM)?
A: 0.527

Q: What about the relative viability (NCI-H661; first compound 1.265 µM) of the same molecule?
A: 0.475

Q: What about the relative viability (NCI-H661; first compound 4 µM) of the same molecule?
A: 0.492

Q: And the relative viability (LOU-NH91; first compound 0.04 µM)?
A: 0.826

Q: What about the relative viability (LOU-NH91; first compound 0.1265 µM) of the same molecule?
A: 0.725

Q: What about the relative viability (LOU-NH91; first compound 0.4 µM) of the same molecule?
A: 0.554

Q: What about the relative viability (LOU-NH91; first compound 1.265 µM) of the same molecule?
A: 0.491

Q: And the relative viability (LOU-NH91; first compound 4 µM)?
A: 0.521

Q: What about the relative viability (NCI-H1734; first compound 0.04 µM) of the same molecule?
A: 0.492

Q: What about the relative viability (NCI-H1734; first compound 0.1265 µM) of the same molecule?
A: 0.549

Q: What about the relative viability (NCI-H1734; first compound 0.4 µM) of the same molecule?
A: 0.523

Q: And the relative viability (NCI-H1734; first compound 1.265 µM)?
A: 0.408

Q: And the relative viability (NCI-H1734; first compound 4 µM)?
A: 0.364

Q: And the relative viability (HCC-827; first compound 0.04 µM)?
A: 0.34

Q: And the relative viability (HCC-827; first compound 0.1265 µM)?
A: 0.302

Q: What about the relative viability (HCC-827; first compound 1.265 µM) of the same molecule?
A: 0.333

Q: What about the relative viability (HCC-827; first compound 4 µM) of the same molecule?
A: 0.314

Q: And the relative viability (NCI-H1792; first compound 0.04 µM)?
A: 0.477

Q: What about the relative viability (NCI-H1792; first compound 0.1265 µM) of the same molecule?
A: 0.729

Q: What about the relative viability (NCI-H1792; first compound 0.4 µM) of the same molecule?
A: 0.525

Q: What about the relative viability (NCI-H1792; first compound 1.265 µM) of the same molecule?
A: 0.334

Q: What about the relative viability (NCI-H1792; first compound 4 µM) of the same molecule?
A: 0.187

Q: And the relative viability (NCI-H1437; first compound 0.04 µM)?
A: 0.544

Q: What about the relative viability (NCI-H1437; first compound 0.1265 µM) of the same molecule?
A: 0.577

Q: And the relative viability (NCI-H1437; first compound 0.4 µM)?
A: 0.55

Q: What about the relative viability (NCI-H1437; first compound 1.265 µM) of the same molecule?
A: 0.486

Q: What about the relative viability (NCI-H1437; first compound 4 µM) of the same molecule?
A: 0.37

Q: And the relative viability (NCI-H2009; first compound 0.04 µM)?
A: 0.38

Q: And the relative viability (NCI-H2009; first compound 0.1265 µM)?
A: 0.296

Q: What about the relative viability (NCI-H2009; first compound 0.4 µM) of the same molecule?
A: 0.354

Q: And the relative viability (NCI-H2009; first compound 1.265 µM)?
A: 0.276

Q: What about the relative viability (NCI-H2009; first compound 4 µM) of the same molecule?
A: 0.213

Q: What about the relative viability (NCI-H2342; first compound 0.04 µM) of the same molecule?
A: 0.79

Q: And the relative viability (NCI-H2342; first compound 0.1265 µM)?
A: 0.636

Q: And the relative viability (NCI-H2342; first compound 0.4 µM)?
A: 0.737

Q: What about the relative viability (NCI-H2342; first compound 1.265 µM) of the same molecule?
A: 0.76

Q: And the relative viability (NCI-H2342; first compound 4 µM)?
A: 0.665

Q: What about the relative viability (NCI-H1355; first compound 0.04 µM) of the same molecule?
A: 0.348

Q: What about the relative viability (NCI-H1355; first compound 0.1265 µM) of the same molecule?
A: 0.342

Q: What about the relative viability (NCI-H1355; first compound 0.4 µM) of the same molecule?
A: 0.337

Q: What about the relative viability (NCI-H1355; first compound 1.265 µM) of the same molecule?
A: 0.319

Q: And the relative viability (NCI-H1355; first compound 4 µM)?
A: 0.249
